System: DMS-114 complex spheroids with HUVEC/MSC, growth % test/control
Experiment: Anticancer human tumor DMS-114 cell line growth inhibition [AhR];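 further: spheroids exposed to agents for 7 days before readout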;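 on viability, T/C: 100% = DMSO vehicle control wells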
Settings: for IC50: curve of first compound; for viability, T/C: stronger effect = lower value
Method in brief: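 Spheroids combined tumor cells with HUVEC endothelial cells and human MSCs as stroma. AhR antagonists were paired with standard or investigational drugs, each dosed in half-log steps down from near clinical Cmax, or from 10 microM where Cmax was unknown.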

[1] = second compound 0.1 µM, first compound 0.0316 µM
[2] = second compound 0.1 µM, first compound 0.1 µM
[3] = second compound 0.1 µM, first compound 0.316 µM
[4] = second compound 0.1 µM, first compound 1 µM
[5] = second compound 0.1 µM, first compound 3.16 µM
[6] = second compound 0.1 µM, first compound 10 µM
[7] = second compound 0.316 µM, first compound 0.0316 µM
[8] = second compound 0.316 µM, first compound 0.1 µM
[9] = second compound 0.316 µM, first compound 0.316 µM
[10] = second compound 0.316 µM, first compound 1 µM
[11] = second compound 0.316 µM, first compound 3.16 µM
[12] = second compound 0.316 µM, first compound 10 µM
[13] = second compound 1 µM, first compound 0.0316 µM
[14] = second compound 1 µM, first compound 0.1 µM
[15] = second compound 1 µM, first compound 0.316 µM
[16] = second compound 1 µM, first compound 1 µM
[17] = second compound 1 µM, first compound 3.16 µM
[18] = second compound 1 µM, first compound 10 µM
[19] = second compound 3.16 µM, first compound 0.0316 µM
[20] = second compound 3.16 µM, first compound 0.1 µM
[21] = second compound 3.16 µM, first compound 0.316 µM
[22] = second compound 3.16 µM, first compound 1 µM
[23] = second compound 3.16 µM, first compound 3.16 µM
[24] = second compound 3.16 µM, first compound 10 µM
[25] = second compound 10 µM, first compound 0.0316 µM
[26] = second compound 10 µM, first compound 0.1 µM
[27] = second compound 10 µM, first compound 0.316 µM
[28] = second compound 10 µM, first compound 1 µM
[29] = second compound 10 µM, first compound 3.16 µM
[30] = second compound 10 µM, first compound 10 µM

With `CC1COCCN1c1cc(C2(S(C)(=N)=O)CC2)nc(-c2ccnc3[nH]ccc23)n1` (stereo not given) + Cc1ccccc1N=Nc1ccc(NC(=O)c2ccnn2C)c(C)c1 the IC50 (second compound 0.1 µM) was greater than 10 µM, the IC50 (second compound 0.316 µM) was greater than 10 µM and the IC50 (second compound 1 µM) was greater than 10 µM. The IC50 (second compound 3.16 µM) was greater than 10 µM, the IC50 (second compound 10 µM) was greater than 10 µM and the viability, T/C [1] was 107%. For the same molecule, the viability, T/C [2] was 100%, the viability, T/C [3] was 104% and the viability, T/C [4] was 109%. The viability, T/C [5] was 106%, the viability, T/C [6] was 77.6% and the viability, T/C [7] was 102%. For the same molecule, the viability, T/C [8] was 98.1%, the viability, T/C [9] was 103% and the viability, T/C [10] was 103%. For the same molecule, the viability, T/C [11] was 92.5%, the viability, T/C [12] was 74.1% and the viability, T/C [13] was 95.5%. For the same molecule, the viability, T/C [14] was 94.5%, the viability, T/C [15] was 90.6% and the viability, T/C [16] was 102%. For the same molecule, the viability, T/C [17] was 102%, the viability, T/C [18] was 71.5% and the viability, T/C [19] was 93.3%. For the same molecule, the viability, T/C [20] was 90.5%, the viability, T/C [21] was 99.3% and the viability, T/C [22] was 95.4%. It also gave a viability, T/C [23] of 94.2%, a viability, T/C [24] of 68% and a viability, T/C [25] of 95.7%. The viability, T/C [26] was 90.7%, the viability, T/C [27] was 96.2% and the viability, T/C [28] was 89.6%. It also gave a viability, T/C [29] of 86.1% and a viability, T/C [30] of 63.1%.
Molecule `COc1ccc([C@@H](O)c2cc(-c3ncnc4cc(N5CCOCC5)ccc34)c(F)cc2Cl)nn1` + Cc1ccccc1N=Nc1ccc(NC(=O)c2ccnn2C)c(C)c1 has an IC50 (second compound 0.1 µM) greater than 10 µM, an IC50 (second compound 0.316 µM) greater than 10 µM and an IC50 (second compound 1 µM) greater than 10 µM. The IC50 (second compound 3.16 µM) was greater than 10 µM, the IC50 (second compound 10 µM) was greater than 10 µM and the viability, T/C [1] was 92.6%. The viability, T/C [2] was 106%, the viability, T/C [3] was 114% and the viability, T/C [4] was 121%. For the same molecule, the viability, T/C [5] was 124%, the viability, T/C [6] was 96.6% and the viability, T/C [7] was 98.1%. It also gave a viability, T/C [8] of 95.7%, a viability, T/C [9] of 104% and a viability, T/C [10] of 104%. The viability, T/C [11] was 111%, the viability, T/C [12] was 99.8% and the viability, T/C [13] was 96.6%. It also gave a viability, T/C [14] of 92%, a viability, T/C [15] of 94.6% and a viability, T/C [16] of 114%. The viability, T/C [17] was 129%, the viability, T/C [18] was 97% and the viability, T/C [19] was 96.7%. The viability, T/C [20] was 100%, the viability, T/C [21] was 91.8% and the viability, T/C [22] was 103%. It also gave a viability, T/C [23] of 112%, a viability, T/C [24] of 84.4% and a viability, T/C [25] of 94.6%. For the same molecule, the viability, T/C [26] was 94.2%, the viability, T/C [27] was 90.8% and the viability, T/C [28] was 91%. The viability, T/C [29] was 91.4% and the viability, T/C [30] was 53.6%.
Molecule `O=C(C=Cn1cnc(-c2cc(C(F)(F)F)cc(C(F)(F)F)c2)n1)NNc1cnccn1` + Cc1ccccc1N=Nc1ccc(NC(=O)c2ccnn2C)c(C)c1 has an IC50 (second compound 0.1 µM) of 0.827 µM, an IC50 (second compound 0.316 µM) of 0.806 µM and an IC50 (second compound 1 µM) of 0.906 µM. For the same molecule, the IC50 (second compound 3.16 µM) was 0.877 µM, the IC50 (second compound 10 µM) was 0.987 µM and the viability, T/C (second compound 0.1 µM, first compound 0.00949 µM) was 111%. The viability, T/C (second compound 0.1 µM, first compound 0.03 µM) was 114%, the viability, T/C (second compound 0.1 µM, first compound 0.0949 µM) was 124% and the viability, T/C (second compound 0.1 µM, first compound 0.3 µM) was 93.4%. It also gave a viability, T/C (second compound 0.1 µM, first compound 0.949 µM) of 45%, a viability, T/C (second compound 0.1 µM, first compound 3 µM) of 18.2% and a viability, T/C (second compound 0.316 µM, first compound 0.00949 µM) of 95.8%. It also gave a viability, T/C (second compound 0.316 µM, first compound 0.03 µM) of 125%, a viability, T/C (second compound 0.316 µM, first compound 0.0949 µM) of 127% and a viability, T/C (second compound 0.316 µM, first compound 0.3 µM) of 89.1%. The viability, T/C (second compound 0.316 µM, first compound 0.949 µM) was 45.2%, the viability, T/C (second compound 0.316 µM, first compound 3 µM) was 17.4% and the viability, T/C (second compound 1 µM, first compound 0.00949 µM) was 100%. It also gave a viability, T/C (second compound 1 µM, first compound 0.03 µM) of 124%, a viability, T/C (second compound 1 µM, first compound 0.0949 µM) of 144% and a viability, T/C (second compound 1 µM, first compound 0.3 µM) of 91.6%. It also gave a viability, T/C (second compound 1 µM, first compound 0.949 µM) of 51.8%, a viability, T/C (second compound 1 µM, first compound 3 µM) of 20.6% and a viability, T/C (second compound 3.16 µM, first compound 0.00949 µM) of 99.7%. The viability, T/C (second compound 3.16 µM, first compound 0.03 µM) was 110%, the viability, T/C (second compound 3.16 µM, first compound 0.0949 µM) was 124% and the viability, T/C (second compound 3.16 µM, first compound 0.3 µM) was 88%. The viability, T/C (second compound 3.16 µM, first compound 0.949 µM) was 48.9%, the viability, T/C (second compound 3.16 µM, first compound 3 µM) was 21.9% and the viability, T/C (second compound 10 µM, first compound 0.00949 µM) was 98.5%. The viability, T/C (second compound 10 µM, first compound 0.03 µM) was 91.5%, the viability, T/C (second compound 10 µM, first compound 0.0949 µM) was 95.5% and the viability, T/C (second compound 10 µM, first compound 0.3 µM) was 75.6%. For the same molecule, the viability, T/C (second compound 10 µM, first compound 0.949 µM) was 51.5% and the viability, T/C (second compound 10 µM, first compound 3 µM) was 30.4%.

From PubChem BioAssay AID1919008 (Molecular Pharmacology Branch, DTP, NCI, 2023)
